The values below come from PubChem BioAssay AID1645848.

≈ marks a conversion by molar mass, not a printed value. Some results are limits rather than exact numbers.

For the data set the following is noted: buffer; pH 7.4; 6.0 h; 150.0 µM.
Consider `CCS(=O)(=O)c1cccc(C(=O)Nc2ccc(-c3nc4ccccc4s3)c(O)c2)c1`, for which the solubility (kinetic) was < 1 µg/mL.
In turn, `O=S(=O)(Nc1nc2ccccc2s1)c1ccc(NCc2ccc(Br)cc2O)cc1` returned a kinetic solubility of 4.87 µg/mL (≈ 9.92 µM).
As for `CCOc1ccc(C2c3c(oc4ccc(C)cc4c3=O)C(=O)N2CCCN(C)C)cc1` (stereo not drawn), the figure is > 62 µg/mL.
Regarding `O=C(O)c1ccnc2cc(C(OCCN3CCCCC3)c3ccccc3Cl)[nH]c12` (stereo not drawn), the solubility (kinetic) is > 61 µg/mL.
Then `CCCCOC(=O)c1ccnc2cc(C(OCCN3CCCCC3)c3ccccc3Cl)sc12` (stereo not drawn), with < 1 µg/mL; and `Cc1ccc(C)c(S(=O)(=O)NCC2CN(Cc3ccccc3)CCO2)c1` (stereo not drawn), with > 55 µg/mL; and `CN(C(=O)CSc1nc2ccc(NC(=O)c3ccc(F)cc3)cc2s1)c1ccccc1`, with < 1 µg/mL.
For the compound `CN(C)C(=O)NC1CCC(CCN2CCN(c3cccc(Cl)c3Cl)CC2)CC1` (stereo not drawn), the solubility (kinetic) was determined as 34.8 µg/mL (≈ 81.3 µM).
Then `Nc1c(C(=O)N2CCCCC2)sc(=S)n1-c1ccccc1`, with 9.32 µg/mL (≈ 29.2 µM).
Then `Cc1cccc2c(C(=O)O)cc(-c3cccs3)nc12`, with > 40 µg/mL.
Then `Cn1cc(S(=O)(=O)N2CCOCC2)cc1C(=O)Nc1ccc(Cl)c(C(F)(F)F)c1`, with < 1 µg/mL; and `CCN(c1ccccc1)S(=O)(=O)c1c(C)nc2scc(C)n2c1=O`, with > 54 µg/mL.
`CC(C)CCNC(=O)[C@H](CC(C)C)NC(=O)[C@H]1O[C@@H]1C(=O)O` had a kinetic solubility of 33 µg/mL (≈ 105 µM).
As for `CC(C)NC(=O)N1C[C@@H]2C[C@H](C1)c1ccc(-c3cccc(C(F)(F)F)c3)c(=O)n1C2`, the figure is > 93 µg/mL; as for `Cc1cc(Nc2nc(-c3ccncc3)nc3ccccc23)n[nH]1`, 1.1 µg/mL (≈ 3.65 µM).
As for `O=C(Nc1cccnc1)c1cccs1`, the figure is > 30 µg/mL.
Then `Fc1cnc(-c2ccccc2C(F)F)nc1NCc1ccc(-c2ccn[nH]2)cc1`, with < 1 µg/mL.
On to `Nc1ccccc1OCCn1c(CCNC(=O)C2CCCCC2)nc2ccccc21`, for which the kinetic solubility is 44.5 µg/mL (≈ 109 µM).
`O=C(c1csnn1)N1CCC2(CCCN(C(c3ccccc3)c3ccccc3)C2)CC1`: the solubility (kinetic) was < 1 µg/mL.
For the compound `O=C(Nc1ncc(-c2ccccc2)s1)c1ccc(-c2cccc([N+](=O)[O-])c2)o1`, the solubility (kinetic) was < 1 µg/mL.
On to `Cc1cc2c(-c3cccc(O)c3)nc(-c3c(C)noc3C)cc2[nH]1`, for which the kinetic solubility is < 1 µg/mL.
For `CCOC(=O)C1=C(CN(CC)Cc2ccccc2)NC(=O)NC1c1ccc(OC(C)C)cc1` (stereo not drawn), the kinetic solubility was < 1 µg/mL.
Regarding `O=[N+]([O-])c1cccnc1N/N=C/c1ccccc1O`, the kinetic solubility was < 1 µg/mL.
In the case of `NC(=O)C1CCN(c2ncc(-c3ccc(Cl)cc3)s2)CC1`, the solubility (kinetic) is < 1 µg/mL.
With `O=C(NCCCNc1nc(Nc2cccc(CN3CCOCC3)c2)ncc1C1CC1)C1CCC1`, the solubility (kinetic) was > 69 µg/mL.
`NC(=O)C1CCN(c2nnc(-c3ccc(Br)cc3)s2)CC1` registered a solubility (kinetic) of 8.24 µg/mL (≈ 22.4 µM).
Then `CCOc1cc(=O)n2c(c1C(=O)Nc1cc(OC)c(Cl)cc1OC)CCCC2`, with > 60 µg/mL; and `O=[N+]([O-])c1cccc(CNc2ccc(S(=O)(=O)Nc3nccs3)cc2)c1O`, with 10.3 µg/mL (≈ 25.2 µM).
On to `COc1ccccc1NC(=O)C1=C(C)Nc2c(C(=O)Nc3ccc(F)cc3)cnn2C1c1ccc(Cl)cc1` (stereo not drawn), for which the kinetic solubility is < 1 µg/mL.
Then `COc1ccc(-c2ccc3ncc4c(c3c2)n(-c2ccc(N3CCNCC3)c(C(F)(F)F)c2)c(=O)n4C)cn1`, with < 1 µg/mL.
For `COc1ccc(NC(=O)c2cccnc2C)cc1S(=O)(=O)Nc1ccc(Br)cc1`, the kinetic solubility was 26.4 µg/mL (≈ 55.5 µM).
In the case of `CCC(=O)NC(c1cccs1)c1cc([N+](=O)[O-])c2cccnc2c1O` (stereo not drawn), the solubility (kinetic) is > 53 µg/mL.
Then `CCOc1ccc(CCNC(=O)c2cc3ccccc3n2C)cc1OCC`, with 1.63 µg/mL (≈ 4.44 µM); and `O=C1CCCC2=C1C(c1ccccc1Br)N=C(Nc1nc3ccccc3o1)N2` (stereo not drawn), with < 1 µg/mL; and `COC(=O)c1ccc2c(c1)nc1n2[C@@H](CNC(C)=O)COC1`, with > 30 µg/mL.
As for `Nc1nc2c(s1)C(c1ccccc1)CC(=O)N2` (stereo not drawn), the figure is 26 µg/mL (≈ 106 µM); as for `Cc1ccc(-c2cc(C(=O)Nc3ccc(S(=O)(=O)N(C)C)cc3)c3ccccc3n2)cc1C`, < 1 µg/mL.
As for `CN(C)c1cccc(-c2cc(N3CCC(C(N)=O)CC3)ncn2)c1`, the figure is > 48 µg/mL; as for `COc1cc(Nc2nc(-c3ccncc3)nc3ccccc23)ccc1Cl`, < 1 µg/mL; as for `CCOC(=O)c1c(C)c(-c2ccccc2)n(CC(=O)NCc2ccccc2)c1C`, < 1 µg/mL.
In the case of `CC(C)CN(C[C@@H](O)[C@H](Cc1ccccc1)NC(=O)O[C@@H]1CO[C@H]2OCC[C@H]21)S(=O)(=O)c1ccc(N)cc1`, the solubility (kinetic) is > 81 µg/mL.
`N#Cc1ccccc1-c1csc(N2CCC(C(N)=O)CC2)n1`: the kinetic solubility amounted to 36.9 µg/mL (≈ 118 µM).
Turning to `CCCCNc1oc(-c2cccc3ccccc23)nc1C#N`, the kinetic solubility is < 1 µg/mL.
As to `Cc1ccc(OCCn2c(CCNC(=O)N3CCCCC3)nc3ccccc32)cc1`, the kinetic solubility was 9.07 µg/mL (≈ 22.3 µM).
In the case of `Cc1nn(CCc2nc(-c3ccc4ccccc4c3)cs2)c2[nH]c(=O)cc(C(F)(F)F)c12`, the solubility (kinetic) was < 1 µg/mL.
As for `NC(=O)C1CCN(c2nc(-c3ccccc3N)cs2)CC1`, the figure is 29.4 µg/mL (≈ 97.1 µM); as for `Cc1cc(-c2nnc3n2CCCCC3)c(C)n1-c1ccc(C#N)cc1`, > 49 µg/mL.
Then `O=C(Nc1nc(-c2ccccc2)cs1)c1ccncc1NS(=O)(=O)c1ccc(N2CCCC2=O)cc1`, with 56.9 µg/mL (≈ 110 µM); and `O=C1CCc2ccc(OCCCCN3CCN(c4cccc(Cl)c4Cl)CC3)cc2N1`, with < 1 µg/mL; and `Cc1ccc(OCCn2c(CCNC(=O)c3ccc(Cl)cc3)nc3ccccc32)cc1`, with < 1 µg/mL.
For the compound `O=C(CCS(=O)(=O)c1nc(-c2cccs2)cc(C(F)(F)F)n1)Nc1ccc(OC(F)(F)F)cc1`, the solubility (kinetic) amounted to 11.5 µg/mL (≈ 21.8 µM).
Consider `COc1ccc(C(=O)NC2CCN(c3cnn(CC4CC4)c(=O)c3)CC2)c(OC)n1`, for which the solubility (kinetic) is > 41 µg/mL.
Then `O=c1[nH]cnc2nc[nH]c12`, with 8.8 µg/mL (≈ 64.7 µM); and `COc1cccc(CNc2ccc(S(=O)(=O)Nc3cccs3)cc2)c1O`, with 11.6 µg/mL (≈ 29.6 µM); and `Cc1ccc(S(=O)(=O)Nc2cnccc2C(=O)Nc2nc(-c3cccc(C)c3)cs2)cc1`, with 15.4 µg/mL (≈ 33.1 µM).
As for `CC1Oc2cc3c(-c4c(O)cc(O)c5c(O)c6c(cc45)OC(C)C(C)C6=O)c(O)cc(O)c3c(O)c2C(=O)C1C` (stereo not drawn), the figure is 53.5 µg/mL (≈ 97.8 µM); as for `CCOc1ccc(CCNC(=O)c2cc3sccc3n2CCN(C)C)cc1OCC`, > 63 µg/mL; as for `CNC(=O)C1CCN(c2nc(-c3ccc(Br)cc3)cs2)CC1`, 3.67 µg/mL (≈ 9.64 µM).
As to `N[C@@H](Cc1cc(Br)c(O)c(Br)c1)C(=O)O`, the solubility (kinetic) is > 50 µg/mL.
In turn, `Nc1cccc(CNc2ccc(S(=O)(=O)Nc3nccs3)cc2)c1O` returned a kinetic solubility of 47.2 µg/mL (≈ 125 µM).
Then `CCN(c1ccccc1)S(=O)(=O)c1cc(C(=O)Nc2ccc(Br)cc2)ccc1F`, with < 1 µg/mL.
On to `Cc1cc(SCc2sc(-c3ccc(C(F)(F)F)cc3)nc2C)ccc1OCC(=O)O`, for which the solubility (kinetic) is > 67 µg/mL.
As to `O=C(Nc1nc(-c2ccccc2)cs1)c1ccncc1NS(=O)(=O)c1ccc(-c2ccccc2)cc1`, the kinetic solubility was < 1 µg/mL.
Then `CCCCN1CCC[C@H]1CNC(=O)c1cc(C#N)c2ccccc2c1OC`, with 22.2 µg/mL (≈ 60.6 µM); and `CC(=O)Nc1ccc(S(=O)(=O)Nc2nccs2)cc1`, with > 44 µg/mL.
Then `O=C(O)C(=O)O.Oc1ccccc1NCC(O)Cn1ccc2ccccc21` (stereo not drawn), with 8.51 µg/mL.
For `CCOc1ccccc1C(=O)Nc1ccncc1C(=O)Nc1cccc(S(=O)(=O)C(F)(F)F)c1`, the kinetic solubility was < 1 µg/mL.
Regarding `Cc1ccc(-c2cc(C(=O)Nc3ccc(S(=O)(=O)NCc4nccs4)cc3)c3ccccc3n2)cc1C`, the kinetic solubility is 1.66 µg/mL (≈ 3.14 µM).
`O=S(=O)(c1ccccc1)N1CCN(c2nc(-c3ccc(Br)cc3)cs2)CC1`: the kinetic solubility worked out at 1.23 µg/mL (≈ 2.66 µM).
As for `CS(=O)(=O)N1CCN(c2nc(-c3ccc(Br)cc3)cs2)CC1`, the figure is < 1 µg/mL; as for `O=C1CCCC2=C1C(c1[nH]ncc1Cl)N=C(Nc1nc3cccc(Cl)c3o1)N2` (stereo not drawn), < 1 µg/mL; as for `c1cc(OCCN2CCCCC2)cc(-c2n[nH]c3ccc(-c4ncn[nH]4)cc23)c1`, > 38 µg/mL.
As for `Cc1noc(C)c1Cc1ccc(C(=O)N2CCc3c(nc4cc(-c5ccccc5)[nH]n4c3=O)C2)o1`, the figure is 4.77 µg/mL (≈ 10.2 µM).
Then `COc1cc([C@@H](CC(=O)O)c2ccc(C)c(CN3C[C@@H](C)Oc4ccccc4S3(=O)=O)c2)cc2nnn(C)c12`, with > 81 µg/mL; and `Oc1ccc(-c2nc(C3CC3)nc3c2CCN(Cc2ccc(F)cc2)CC3)cc1`, with 8.86 µg/mL (≈ 22.8 µM).
The compound `O=C1NC(=S)NC(=O)C1=Cc1cccn1-c1ccc(O)cc1` displayed a solubility (kinetic) of 37 µg/mL (≈ 118 µM).
Turning to `NC(=O)C1CCN(c2nccc(-c3ccc4c(c3)OCCO4)n2)CC1`, the kinetic solubility is > 50 µg/mL.
For the compound `Cc1cc(C)nc(NC(=S)N2CCN(c3ccc(Cl)cc3F)CC2)c1`, the solubility (kinetic) is 3.36 µg/mL (≈ 8.88 µM).
As for `CC1=C(C(=O)Nc2ccccc2)C(c2ccccc2Cl)N=C(Nc2nc3ccccc3o2)N1` (stereo not drawn), the figure is < 1 µg/mL; as for `CC(C)(C)C(=O)N1CCN(c2nccc(Nc3ccccc3Cl)n2)CC1`, 26.3 µg/mL (≈ 70.3 µM); as for `COc1ccccc1C(=O)NC1CCCc2c1[nH]c1c(Cl)cccc21` (stereo not drawn), < 1 µg/mL.
Regarding `Cc1nc2ccc(NC(=O)c3cc(S(=O)(=O)N(C)c4ccccc4)ccc3Cl)cc2s1`, the solubility (kinetic) was < 1 µg/mL.
Then `COc1cccc(CNc2ccc(S(=O)(=O)Nc3cccnc3)cc2)c1O`, with 3.93 µg/mL (≈ 10.2 µM).
`O=c1[nH]c(N2CCOCC2)nc2c1CCN(Cc1cc(Cl)ccc1F)CC2` yielded a solubility (kinetic) of 28.6 µg/mL (≈ 72.7 µM).
Then `Cc1ccccc1S(=O)(=O)N1CCc2cc(-c3nc(NC(=O)Cc4ccc5c(c4)OCO5)sc3C)ccc21`, with < 1 µg/mL; and `O=C1Nc2cccc(Cl)c2/C1=C\c1cc(Cl)c(O)c(Cl)c1`, with < 1 µg/mL.
Then `COc1ccc(-n2nc(C3CCN([S+](=O)([O-])c4cccc(C(F)(F)F)c4)CC3)[nH]c2=O)cc1`, with < 1 µg/mL; and `COc1ccc(S(=O)(=O)N(C(=O)C(C)C)c2ccc3oc(=O)sc3c2)cc1`, with 8.8 µg/mL (≈ 21.6 µM).

As a reminder, the kinetic solubility is the concentration staying in solution when a stock, usually in DMSO, is diluted into the medium.
